SMILES strings stand for the structures. pKi: −log10 of the molar value. Counter-ions that a name gives are not always drawn. Non-standard residues stand in square brackets, D forms with d. Residues, ends and D or L forms follow the SMILES beside them. Sar = CNCC(=O)O

The target of one assay is T1, URAT1 (Homo sapiens, UniProt Q96S37).
T1 construct: gene SLC22A12; NM_144585.3, baculovirus-transduced HEK293 cells
T1 sequence (Q96S37 1-553): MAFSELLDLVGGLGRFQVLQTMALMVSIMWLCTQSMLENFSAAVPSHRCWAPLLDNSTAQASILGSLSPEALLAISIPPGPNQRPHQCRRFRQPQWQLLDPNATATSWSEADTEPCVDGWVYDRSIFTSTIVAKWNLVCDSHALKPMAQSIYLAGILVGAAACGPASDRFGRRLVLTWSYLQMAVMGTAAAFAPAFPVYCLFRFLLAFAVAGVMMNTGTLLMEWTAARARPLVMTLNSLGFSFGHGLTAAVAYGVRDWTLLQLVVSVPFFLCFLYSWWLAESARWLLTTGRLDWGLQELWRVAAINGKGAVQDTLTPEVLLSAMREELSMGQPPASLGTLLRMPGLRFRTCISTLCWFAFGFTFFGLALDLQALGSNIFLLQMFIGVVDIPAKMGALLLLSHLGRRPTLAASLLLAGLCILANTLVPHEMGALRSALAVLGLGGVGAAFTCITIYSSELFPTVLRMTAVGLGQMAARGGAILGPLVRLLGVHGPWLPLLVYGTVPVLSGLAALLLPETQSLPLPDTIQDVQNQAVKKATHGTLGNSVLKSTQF
Briefly: model substrate uptake vs control cells. In kind it is cell-based.

In assay [1] the target is T2, OAT3 (Homo sapiens, UniProt Q8TCC7).
T2 construct: gene SLC22A8; NM_004254.3, baculovirus-transduced HEK293 cells
T2 sequence (Q8TCC7 1-542): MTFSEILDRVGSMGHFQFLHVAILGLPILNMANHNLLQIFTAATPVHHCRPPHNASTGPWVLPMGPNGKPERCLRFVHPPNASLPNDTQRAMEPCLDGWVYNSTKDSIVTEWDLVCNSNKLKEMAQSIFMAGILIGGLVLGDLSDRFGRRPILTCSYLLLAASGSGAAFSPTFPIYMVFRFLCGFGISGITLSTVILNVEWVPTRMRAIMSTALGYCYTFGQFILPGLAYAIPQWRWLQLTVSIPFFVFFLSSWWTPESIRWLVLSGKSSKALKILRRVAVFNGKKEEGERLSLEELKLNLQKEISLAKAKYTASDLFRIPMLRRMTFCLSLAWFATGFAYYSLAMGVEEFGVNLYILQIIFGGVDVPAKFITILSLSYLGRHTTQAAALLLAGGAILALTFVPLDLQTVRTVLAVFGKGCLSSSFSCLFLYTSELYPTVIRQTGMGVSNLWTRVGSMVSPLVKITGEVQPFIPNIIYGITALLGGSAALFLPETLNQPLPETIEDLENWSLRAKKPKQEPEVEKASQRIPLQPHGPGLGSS
Briefly: radiolabelled model substrate uptake ([…]). The class given is cell-based.

The target of another assay is T3, PEPT1 (Homo sapiens, UniProt P46059).
T3 construct: gene SLC15A1; NM_005073.3, baculovirus-transduced HEK293 cells
T3 sequence (P46059 1-708): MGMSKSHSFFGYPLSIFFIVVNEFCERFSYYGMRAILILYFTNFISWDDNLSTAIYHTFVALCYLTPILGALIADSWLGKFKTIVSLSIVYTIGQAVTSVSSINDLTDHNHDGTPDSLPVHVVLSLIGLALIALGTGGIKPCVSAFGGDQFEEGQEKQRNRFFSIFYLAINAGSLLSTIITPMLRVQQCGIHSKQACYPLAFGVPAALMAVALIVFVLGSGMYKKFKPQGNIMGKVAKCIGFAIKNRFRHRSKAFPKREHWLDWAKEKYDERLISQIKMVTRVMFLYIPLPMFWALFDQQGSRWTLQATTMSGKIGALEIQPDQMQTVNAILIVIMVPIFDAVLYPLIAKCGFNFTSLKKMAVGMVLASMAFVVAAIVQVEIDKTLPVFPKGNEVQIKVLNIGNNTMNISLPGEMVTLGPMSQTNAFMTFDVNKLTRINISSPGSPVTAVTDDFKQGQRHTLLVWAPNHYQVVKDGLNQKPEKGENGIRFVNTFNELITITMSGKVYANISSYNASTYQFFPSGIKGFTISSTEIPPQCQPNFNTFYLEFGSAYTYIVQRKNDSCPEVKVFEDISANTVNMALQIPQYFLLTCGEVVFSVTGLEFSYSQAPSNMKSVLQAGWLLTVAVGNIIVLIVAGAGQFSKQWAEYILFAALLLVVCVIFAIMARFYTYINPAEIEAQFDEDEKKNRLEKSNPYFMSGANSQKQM
The experiment in a line: radiolabelled model substrate uptake vs control cells. The class given is cell-based.

For another assay, the target named is T4, PEPT2 (Homo sapiens, UniProt Q16348).
T4 construct: gene SLC15A2; NM_021082.3, baculovirus-transduced HEK293 cells
T4 sequence (Q16348 1-729): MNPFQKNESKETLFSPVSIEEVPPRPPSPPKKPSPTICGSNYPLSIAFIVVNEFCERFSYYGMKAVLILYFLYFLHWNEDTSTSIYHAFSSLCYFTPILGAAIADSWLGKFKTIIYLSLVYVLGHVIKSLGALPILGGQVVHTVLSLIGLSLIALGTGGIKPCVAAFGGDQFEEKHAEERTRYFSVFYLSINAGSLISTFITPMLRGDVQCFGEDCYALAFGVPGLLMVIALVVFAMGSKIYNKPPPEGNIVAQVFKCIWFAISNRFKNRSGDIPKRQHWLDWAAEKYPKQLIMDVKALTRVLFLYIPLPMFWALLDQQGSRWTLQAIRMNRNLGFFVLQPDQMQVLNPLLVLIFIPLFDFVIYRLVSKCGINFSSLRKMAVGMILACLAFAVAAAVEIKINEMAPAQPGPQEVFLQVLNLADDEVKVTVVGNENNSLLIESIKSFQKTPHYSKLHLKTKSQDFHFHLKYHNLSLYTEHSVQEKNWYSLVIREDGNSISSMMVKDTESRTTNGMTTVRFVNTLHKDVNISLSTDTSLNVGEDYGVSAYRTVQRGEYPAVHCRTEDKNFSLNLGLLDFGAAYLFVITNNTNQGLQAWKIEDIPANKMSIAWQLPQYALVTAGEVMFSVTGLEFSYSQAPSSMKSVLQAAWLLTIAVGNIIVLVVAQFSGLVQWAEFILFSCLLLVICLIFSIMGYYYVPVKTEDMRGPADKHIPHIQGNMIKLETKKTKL
The description is as above. In kind it is cell-based.

Another assay deals with T5, OCTN2 (Homo sapiens, UniProt O76082).
T5 construct: gene SLC22A5; NM_003060.3, baculovirus-transduced HEK293 cells
T5 sequence (O76082 1-557): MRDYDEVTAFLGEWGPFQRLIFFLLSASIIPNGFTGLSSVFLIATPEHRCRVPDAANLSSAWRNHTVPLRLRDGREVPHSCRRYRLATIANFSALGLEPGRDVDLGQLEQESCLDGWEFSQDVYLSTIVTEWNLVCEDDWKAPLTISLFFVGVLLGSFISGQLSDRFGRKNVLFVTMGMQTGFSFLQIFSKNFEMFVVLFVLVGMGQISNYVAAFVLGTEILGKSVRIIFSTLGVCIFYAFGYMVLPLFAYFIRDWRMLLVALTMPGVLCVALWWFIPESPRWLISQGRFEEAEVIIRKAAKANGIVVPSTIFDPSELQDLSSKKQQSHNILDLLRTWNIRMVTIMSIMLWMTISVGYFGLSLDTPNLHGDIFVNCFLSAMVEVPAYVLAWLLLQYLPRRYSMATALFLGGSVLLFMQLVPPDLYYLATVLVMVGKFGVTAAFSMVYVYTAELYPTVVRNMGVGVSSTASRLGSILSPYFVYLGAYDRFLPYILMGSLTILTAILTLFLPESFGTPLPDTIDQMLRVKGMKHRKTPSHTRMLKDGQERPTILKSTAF
The description is as above. In kind it is cell-based.

Another assay has as its target T6, OCTN1 (Homo sapiens, UniProt Q9H015).
T6 construct: gene SLC22A4; NM_003059.2, baculovirus-transduced HEK293 cells
T6 sequence (Q9H015 1-551): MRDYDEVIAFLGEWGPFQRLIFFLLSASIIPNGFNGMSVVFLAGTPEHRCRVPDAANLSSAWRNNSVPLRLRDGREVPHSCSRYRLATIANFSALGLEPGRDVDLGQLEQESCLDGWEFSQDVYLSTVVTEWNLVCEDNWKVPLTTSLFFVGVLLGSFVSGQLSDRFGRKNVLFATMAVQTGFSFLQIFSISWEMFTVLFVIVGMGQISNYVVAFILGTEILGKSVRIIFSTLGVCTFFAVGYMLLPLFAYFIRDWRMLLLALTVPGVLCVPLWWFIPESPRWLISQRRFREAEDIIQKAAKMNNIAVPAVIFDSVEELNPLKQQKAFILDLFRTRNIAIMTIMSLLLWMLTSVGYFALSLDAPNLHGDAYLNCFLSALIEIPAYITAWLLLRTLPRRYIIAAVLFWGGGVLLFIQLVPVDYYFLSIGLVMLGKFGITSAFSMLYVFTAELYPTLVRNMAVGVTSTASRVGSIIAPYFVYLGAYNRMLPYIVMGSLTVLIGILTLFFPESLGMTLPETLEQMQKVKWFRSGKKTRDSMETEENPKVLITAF
The assay is described as above. In kind it is cell-based.

A further assay has as its target T7, OAT2 (Homo sapiens, UniProt Q9Y694).
T7 construct: gene SLC22A7; NM_006672, baculovirus-transduced HEK293 cells
T7 sequence (Q9Y694 1-548): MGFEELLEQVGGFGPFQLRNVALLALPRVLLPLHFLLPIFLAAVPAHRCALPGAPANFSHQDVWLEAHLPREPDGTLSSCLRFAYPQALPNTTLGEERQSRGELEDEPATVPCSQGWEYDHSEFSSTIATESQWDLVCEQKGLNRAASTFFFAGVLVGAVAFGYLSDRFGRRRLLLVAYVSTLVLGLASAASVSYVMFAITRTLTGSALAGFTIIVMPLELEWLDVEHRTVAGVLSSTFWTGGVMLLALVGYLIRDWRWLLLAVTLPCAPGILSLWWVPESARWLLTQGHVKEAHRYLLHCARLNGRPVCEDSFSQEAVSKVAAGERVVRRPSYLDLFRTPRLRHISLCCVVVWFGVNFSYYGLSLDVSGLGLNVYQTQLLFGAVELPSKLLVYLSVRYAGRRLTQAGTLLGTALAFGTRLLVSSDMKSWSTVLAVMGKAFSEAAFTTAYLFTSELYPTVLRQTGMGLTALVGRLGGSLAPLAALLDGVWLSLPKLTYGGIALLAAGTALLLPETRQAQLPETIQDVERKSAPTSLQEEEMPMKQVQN
Described as above. The class given is cell-based.

The target in a further assay is T8, OAT4 (Homo sapiens, UniProt Q9NSA0).
T8 construct: gene SLC22A11

Assay [2] addresses T2, OAT3. The experiment in a line: inhibition of [3H]-E1S uptake (Ki); LC-MS/MS uptake in OAT3-HEK293 cells (Km […]). In kind it is cell-based.

T8 sequence (Q9NSA0 whole entry): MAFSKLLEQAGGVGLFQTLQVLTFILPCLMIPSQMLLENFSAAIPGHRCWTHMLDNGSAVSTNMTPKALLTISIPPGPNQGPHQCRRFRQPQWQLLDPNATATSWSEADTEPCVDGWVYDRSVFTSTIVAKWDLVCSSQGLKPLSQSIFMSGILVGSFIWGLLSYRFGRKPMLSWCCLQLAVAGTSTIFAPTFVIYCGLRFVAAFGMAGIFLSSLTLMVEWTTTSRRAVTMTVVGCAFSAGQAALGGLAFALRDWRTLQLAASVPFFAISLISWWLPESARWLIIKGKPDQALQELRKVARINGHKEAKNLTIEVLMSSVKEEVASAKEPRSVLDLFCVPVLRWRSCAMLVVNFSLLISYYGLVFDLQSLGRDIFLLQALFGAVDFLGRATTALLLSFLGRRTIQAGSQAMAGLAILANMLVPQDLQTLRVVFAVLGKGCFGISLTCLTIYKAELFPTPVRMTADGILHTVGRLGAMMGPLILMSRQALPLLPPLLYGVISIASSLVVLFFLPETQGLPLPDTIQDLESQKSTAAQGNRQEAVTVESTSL

As to `O=c1[nH]c(=O)c2[nH]c(=O)[nH]c2[nH]1` [Urate], the “model substrate uptake vs control cells” value at URAT1 is “OAT2, OAT4, PEPT1, PEPT2, URAT1, OCTN1, and OCTN2 all showed a significant transport ratio compared to control cells”.

Turning to `C[C@]12CC[C@@H]3c4ccc(OS(=O)(=O)O)cc4CC[C@H]3[C@@H]1CCC2=O` [[^3H]-Estrone sulfate], the “radiolabelled model substrate uptake (20 nM)” value on OAT3 [1] is “Transport of [^3H]-E1S by OAT3 was determined in the presence of increasing enalaprilat concentrations”.

Regarding `CN(CC(=O)O)C(=O)CN` [[^3H]-Glycyl-sarcosine] (H-Gly-[Sar]-OH), the “radiolabelled model substrate uptake vs control cells” value was “OAT2, OAT4, PEPT1, PEPT2, URAT1, OCTN1, and OCTN2 all showed a significant transport ratio compared to control cells” at PEPT1; “OAT2, OAT4, PEPT1, PEPT2, URAT1, OCTN1, and OCTN2 all showed a significant transport ratio compared to control cells” at PEPT2.

As to `C[N+](C)(C)C[C@H](O)CC(=O)[O-]` [[^14C]-Carnitine], the “radiolabelled model substrate uptake vs control cells” value was “OAT2, OAT4, PEPT1, PEPT2, URAT1, OCTN1, and OCTN2 all showed a significant transport ratio compared to control cells” on OCTN2; “OAT2, OAT4, PEPT1, PEPT2, URAT1, OCTN1, and OCTN2 all showed a significant transport ratio compared to control cells” at OCTN1.

Take `Nc1ccc(C(=O)NCC(=O)O)cc1` [[^14C]-para-aminohippuric acid]: the “radiolabelled model substrate uptake vs control cells” value at OAT2 is “OAT2, OAT4, PEPT1, PEPT2, URAT1, OCTN1, and OCTN2 all showed a significant transport ratio compared to control cells”.

One may read the Km as the concentration of substrate that gives half-maximal velocity. One may read the pKi as −log10 of the Ki, conventionally taken in molar units. Read a high pKi as a small Ki. With `C[C@H](N[C@@H](CCc1ccccc1)C(=O)O)C(=O)N1CCC[C@H]1C(=O)O` [enalaprilat], at OAT4, the Km is > 1000 µM. In addition, the pKi at OAT3 [2] is 3.87.

The values above are taken from PMC7600309, “Completing the Enalaprilat Excretion Pathway—Renal Handling by the Proximal Tubule” (Pharmaceutics, 2020).
